Data: US6017933A, “Mannich bases of conjugated styryl ketones” (University of Saskatchewan Technologies Inc., priority 1999, dated 2000)

What was measured:
P388 cells = assay: Cytotoxicity, murine P388 leukemic cells (P388 D1); conditions: for IC50: read-out: P388 cells IC50; for cytotoxicity compared with compound 9d: Table 3 screens
human tumors = assay: Cytotoxicity, human tumor cell line panel (approximately 55 lines); conditions: for Selective toxicity towards leukemia / selective/preferential cytotoxicity towards colon cancer cells: human tumor screen; for IC50: read-out: human tumors IC50, mean graph midpoint, approximately 55 cell lines, hydrobromide salts used for 4a, 11a-e
L1210 cells = assay: Cytotoxicity, murine L1210 leukemic cells; format: cell-based; conditions: Mus musculus, mean
Molt 4/C8 cells = assay: Cytotoxicity, Molt 4/C8 human T-lymphocytes; conditions: for TIL1210 (Molt 4/C8 cells): IC50 T-lymphocytes (Molt 4/C8)/IC50 L1210; for TIP388 (Molt 4/C8 cells): IC50 T-lymphocytes (Molt 4/C8)/IC50 P388; for TIht (Molt 4/C8 cells): IC50 T-lymphocytes (Molt 4/C8)/IC50 human tumors; for IC50: read-out: Molt 4/C8 cells IC50
CEM cells = assay: Cytotoxicity, CEM human T-lymphocytes; conditions: for IC50: Homo sapiens, CCRF-CEM, read-out: CEM cells IC50; for TIL1210 (CEM cells): IC50 T-lymphocytes (CEM)/IC50 L1210; for TIP388 (CEM cells): IC50 T-lymphocytes (CEM)/IC50 P388; for TIht (CEM cells): IC50 T-lymphocytes (CEM)/IC50 human tumors

Row | SMILES | IC50 (P388 cells) [nM] | Selective toxicity towards leukemia (human tumors) | IC50 (human tumors) [µM] | IC50 (L1210 cells) [µM] | TIL1210 (Molt 4/C8 cells) (Molt 4/C8 cells) | TIP388 (Molt 4/C8 cells) (Molt 4/C8 cells) | TIht (Molt 4/C8 cells) (Molt 4/C8 cells) | IC50 (Molt 4/C8 cells) [µM] | IC50 (CEM cells) [µM] | TIL1210 (CEM cells) (CEM cells) | TIP388 (CEM cells) (CEM cells) | TIht (CEM cells) (CEM cells) | potency relative to melphalan, P388 (P388 cells) | cytotoxicity compared with compound 9d (P388 cells) | TI (murine leukemia cells vs T-lymphocytes; printed TIht) compared with compound d (Molt 4/C8 cells) | TIht compared with compound 9d (Molt 4/C8 cells) | selective/preferential cytotoxicity towards colon cancer cells (human tumors) | activity relative to melphalan, human tumors (human tumors)
1 | CC[N+]1(C)CCC(O)(c2ccc(Cl)cc2)C(C(=O)c2ccc(Cl)cc2)C1 (centres unmarked) [Compound 12b] | 1500 | Selective toxicity towards leukemia was observed | 12.9 | – | – | – | – | – | – | – | – | – | – | – | – | – | – | –
2 | CC[N+]1(C)CCC(O)(c2ccc(Cl)c(Cl)c2)C(C(=O)c2ccc(Cl)c(Cl)c2)C1 (centres unmarked) [Compound 12c] | 2300 | – | 9.54 | 33.6 | 0.84 | 12.23 | 2.95 | 28.1 | 25.8 | 0.77 | 11.20 | 2.70 | – | – | – | – | – | –
3 | CC[N+]1(C)CCC(O)(/C=C/c2ccc(C)cc2)C(C(=O)/C=C/c2ccc(C)cc2)C1 (centres unmarked) [Compound 10d] | 620 | – | – | 13.8 | 0.45 | 9.98 | – | 6.19 ± 0.7 | 3.92 | 0.28 | 6.32 | – | – | – | – | – | – | –
4 | CCN1CCC(O)(/C=C/c2ccc(Cl)c(Cl)c2)C(C(=O)/C=C/c2ccc(Cl)c(Cl)c2)C1 (centres unmarked) [Compound 9c] | 400 | – | 0.38 | – | – | – | – | – | – | – | – | – | more than half the potency of melphalan | – | – | – | – | –
5 | CCN1CCC(O)(/C=C/c2ccc(OC)cc2)C(C(=O)/C=C/c2ccc(OC)cc2)C1 (centres unmarked) [Compound 9e] | 5000 | this property was also noted | 8.31 | 25.6 | 0.81 | 4.14 | 2.49 | 20.7 | 11.7 | 0.46 | 2.35 | 1.41 | – | – | – | – | – | –
6 | O=C(/C=C/c1ccccc1)CCN1CCN(CCC(=O)/C=C/c2ccccc2)CC1 [Compound 8a] | 620 | – | 12 | 5.78 | 0.95 | 8.89 | 0.46 | 5.51 ± 2.73 | 5.55 | 0.96 | 3.95 | 0.46 | – | – | – | – | – | –
7 | CCN(CC)CCC(=O)c1ccccc1 [Compound 4a] | 2600 | – | 25.1 | 20.3 | 0.86 | 6.68 | 0.69 | 17.4 | 38.5 | 1.90 | 14.81 | 1.53 | – | – | – | – | – | –
8 | CCN(CC)CCC(=O)c1ccc(Cl)c(Cl)c1 [Compound 4c] | – | – | – | – | – | – | – | – | – | – | – | – | more than half the potency of melphalan | – | – | – | – | –
9 | CCN1CCC(O)(c2ccc(O)cc2)C(C(=O)c2ccc(O)cc2)C1 (centres unmarked) [Compound 11f] | 1400 | – | 20.9 | 9.75 | 4.32 | 30.09 | 2.02 | 42.1 | 42.6 | 4.37 | 30.46 | 2.04 | – | – | – | – | – | –
10 | CCN(CC)CCC(=O)c1ccc(C)cc1 [Compound 4d] | 2200 | – | 26.3 | 21.5 | 2.96 | 28.97 | 2.42 | 63.7 | 64.1 | 2.98 | 29.15 | 2.44 | – | – | – | – | – | –
11 | CCN1CCC(O)(/C=C/c2ccccc2)C(C(=O)/C=C/c2ccccc2)C1 (centres unmarked) [Compound 9a] | 1400 | – | 2.75 | 5.3 | 5.64 | 21.36 | 10.88 | 29.9 | 16.5 | 3.12 | 11.81 | 6.02 | – | – | – | – | – | –
12 | CCN1CCC(O)(/C=C/c2cccc(C)c2)C(C(=O)/C=C/c2cccc(C)c2)C1 (centres unmarked) [Compound 13a] | 1890 | – | 2.46 | 12.6 | 1.14 | 7.57 | 5.81 | 14.3 ± 9.1 | 9.23 | 0.73 | 4.89 | 3.75 | – | comparable cytotoxicity to compound 9d | lower | greater than compound 9d | neither 13a,b displayed selective toxicity for colon cancers | –
13 | CCN(CC)CCC(=O)c1ccc(Cl)cc1 [Compound 4b] | 3200 | – | – | 36.9 | 0.62 | 7.13 | – | 22.8 | 40 | 1.08 | 12.50 | – | – | – | – | – | – | –
14 | CCN(CC)CCC(=O)/C=C/c1ccc(Cl)c(Cl)c1 [Compound 1c] | 390 | – | 3.8 | 61.2 | 0.74 | 116.5 | 11.96 | 45.4 | 55.8 | 0.91 | 143.2 | 14.70 | more than half the potency of melphalan | – | – | – | – | –
15 | CCN(CC)CCC(=O)/C=C/c1ccc(Cl)cc1 [Compound 1b] | 300 | – | – | 41 | 0.98 | 134.6 | – | 40.4 | 53.3 | 1.30 | 177.6 | – | more than half the potency of melphalan | – | – | – | – | –
16 | CCN(CC)CCC(=O)/C=C/c1ccc(C)cc1 [Compound 1d] | 1100 | – | – | 52.9 | 1.05 | 50.65 | – | 55.7 | 48.6 | 0.92 | 44.19 | – | – | – | – | – | – | –
17 | CCN1CCC(O)(c2ccc(Cl)cc2)C(C(=O)c2ccc(Cl)cc2)C1 (centres unmarked) [Compound 11b] | 5140 | – | 83.2 | 15.7 | 3.68 | 11.21 | 0.69 | 57.6 | 102 | 6.52 | 19.89 | 1.23 | – | – | – | – | – | –
18 | CC[N+]1(C)CCC(O)(c2ccccc2)C(C(=O)c2ccccc2)C1 (centres unmarked) [Compound 12a] | 1300 | Selective toxicity towards leukemia was observed | 12.9 | – | – | – | – | – | – | – | – | – | – | – | – | – | – | –
19 | O=C(CCN1CCN(CCC(=O)c2ccccc2)CC1)c1ccccc1 [Compound 8b] | 2840 | – | – | 9.71 | 2.69 | 9.20 | – | 26.1 | 16 | 1.65 | 5.64 | – | – | – | – | – | – | –
20 | CCN(CC)CCC(=O)/C=C/c1ccc(OC)cc1 [Compound 1e] | 670 | – | – | 44.3 | 1.17 | 77.69 | – | 52.1 | 48.6 | 1.10 | 72.55 | – | – | – | – | – | – | –
21 | CCN(CC)CCC(=O)/C=C/c1ccccc1 [Compound 1a] | 1700 | this property was also noted | 9.77 | 25.7 | 1.66 | 25.04 | 4.36 | 42.6 | 33.9 | 1.32 | 19.92 | 3.47 | – | – | – | – | – | –
22 | CCN1CCC(O)(/C=C/c2ccc(C)c(C)c2)C(C(=O)/C=C/c2ccc(C)c(C)c2)C1 (centres unmarked) [Compound 13b] | 2590 | – | – | 20.9 | 0.67 | 5.41 | – | 14 ± 8.6 | 30.8 | 1.47 | 11.89 | – | – | comparable cytotoxicity to compound 9d | lower | greater than compound 9d | neither 13a,b displayed selective toxicity for colon cancers | –
23 | CC[N+]1(C)CCC(O)(c2ccc(OC)cc2)C(C(=O)c2ccc(OC)cc2)C1 (centres unmarked) [Compound 12e] | 980 | Selective toxicity towards leukemia was observed | 10.2 | – | – | – | – | – | – | – | – | – | – | – | – | – | – | –
24 | CC[N+]1(C)CCC(O)(c2ccc(C)cc2)C(C(=O)c2ccc(C)cc2)C1 (centres unmarked) [Compound 12d] | 2100 | – | 50.1 | – | – | – | – | – | – | – | – | – | – | – | – | – | – | five times more potent than melphalan
25 | CCN1CCC(O)(c2ccc(OC)cc2)C(C(=O)c2ccc(OC)cc2)C1 (centres unmarked) [Compound 11e] | 4170 | – | 19.5 | 13.5 | 2.94 | 9.51 | 2.04 | 39.7 | 39.9 | 2.96 | 9.57 | 2.05 | – | – | – | – | – | –
26 | CCN1CCC(O)(c2ccc(Cl)c(Cl)c2)C(C(=O)c2ccc(Cl)c(Cl)c2)C1 (centres unmarked) [Compound 11c] | 3110 | – | 16.6 | – | – | – | – | – | – | – | – | – | – | – | – | – | – | –
